Experimental data: the NIST ThermoML archive (doi:10.1016/j.tca.2018.08.022)
Numbers after ± are expanded uncertainties.

Key:
[1] = for mass density: 101.33 kPa, X-ray diffraction
[2] = Molar enthalpy of transition or fusion; conditions: DSC

Structure (SMILES) | Triple point temperature ([1]; Crystal 1, DSC) [K] | Triple point temperature ([1]; Metastable crystal, DSC) [K] | Triple point temperature ([1]; Crystal, visual observation) [K] | Triple point temperature ([1]; Crystal 2, DSC) [K] | Molar enthalpy of transition or fusion ([2]; Crystal 1) [kcal/mol] | Molar enthalpy of transition or fusion ([2]; Crystal 2) [kcal/mol] | further results
CCCCCCCCN(CCCCCCCC)c1ccc(N=Nc2ccc(-c3ccc(C#N)c(C#N)c3)c(C#N)c2)cc1 | 368.35 ± 0.8 | 365.05 ± 0.8 |  |  |  |  | mass density ([1]; 296 K, Metastable crystal): 1124 ± 7 kg/m3
N#Cc1cc(N)ccc1-c1ccc2c(c1)C(=O)NC2=O [5-amino-2-(1,3-dioxoisoindolin-5-yl)benzonitrile] |  |  | 589.15 ± 3 |  |  |  | 
N#Cc1cc([N+](=O)[O-])ccc1-c1ccc2c(c1)C(=O)NC2=O [2-(1,3-dioxoisoindolin-5-yl)-5-nitrobenzonitrile] |  |  | 567.15 ± 3 |  |  |  | 
CCCCN(CCCC)c1ccc(N=Nc2ccc(-c3ccc4c(c3)C(=O)NC4=O)c(C#N)c2)cc1 | 456.85 ± 0.8 |  |  | 436.45 ± 0.8 | 6.72 ± 0.239 | 0.621 ± 0.0478 | mass density ([1]; 200 K, Crystal 2): 1262 ± 7 kg/m3
N#Cc1ccc(-c2ccc([N+](=O)[O-])cc2C#N)cc1C#N [4-nitro-[1,1'-biphenyl]-2,3',4'-tricarbonitrile] |  |  | 472.15 ± 3 |  |  |  | 
CCCCN(CCCC)c1ccc(N=Nc2ccc(-c3ccc(C#N)c(C#N)c3)c(C#N)c2)cc1 | 427.35 ± 0.8 | 403.45 ± 0.8 |  |  | 8.39 ± 0.311 |  | mass density ([1]; 296 K, Crystal 1): 1165 ± 6 kg/m3; Glass transition temperature ([1]; Glass, DSC): 42.00 ± 0.8 °C
CCCCN(CCCC)c1ccc(N=Nc2cccc(C#N)c2-c2ccc(C#N)c(C#N)c2)cc1 | 469.05 ± 0.8 |  |  | 386.25 ± 0.8 | 8.48 ± 0.311 | 0.645 ± 0.0478 | mass density ([1]; 296 K, Crystal 2): 1180 ± 6 kg/m3
N#Cc1ccc(-c2ccc(N)cc2C#N)cc1C#N [4-amino-[1,1'-biphenyl]-2,3',4'-tricarbonitrile] |  |  | 558.15 ± 3 |  |  |  | 
CCN(CC)c1ccc(N=Nc2ccc(-c3ccc(C#N)c(C#N)c3)c(C#N)c2)cc1 | 503.45 ± 0.8 | 489.35 ± 0.8 |  | 487.95 ± 0.8 | 8.13 ± 0.287 | 1.31 ± 0.0717 | mass density ([1]; 296 K, Crystal 2): 1217 ± 8 kg/m3
